Drawing on patent publication US8471005B2 (Cephalon, Inc., priority 2008, dated 2013), this text covers IC50 for 26 compounds.

Some results are limits rather than exact numbers.

Assay [1] deals with T1, JAK2 (Homo sapiens, UniProt O60674).
T1 construct: host or cells: baculovirus expression system
Description: Recombinant Human JAK2 Kinase Assay (TRF). As to conditions: JAK2 Kinase Inhibition; read-out: JAK2 Potency. It counts as biochemical. The procedure, abridged:
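Europium-labelled PY100 antibody reported tyrosine phosphorylation of a Neutravidin-captured biotinyl 15-mer peptide by JAK2 (baculovirus-expressed, 15 ng/ml). Conditions: 20 mM HEPES pH 7.2, 0.2 μM ATP, 1 mM MnCl2, 0.1% BSA, DMSO 2.5% final, 20 min at room temperature.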

Assay [2] has as its target T2, ALK (Homo sapiens, UniProt Q9UM73).
T2 construct: host or cells: baculovirus expression system
Briefly: ALK Kinase Assay (ELISA/TRF, PLC-γ substrate). It counts as biochemical. As to conditions: ALK Kinase Inhibition; read-out: ALK Potency. An outline of the steps: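 First, plates are coated with substrate (phospholipase C-γ, 10 μg/mL, TBS). Next, 30 ng/ml ALK initiates phosphorylation for 15 min at 37° C. Then Eu-N1 PT66 antibody is added for detection, and a nonlinear dose-response fit of percent inhibition yields IC50.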
Background: In an ELISA, binding on a coated surface is turned into a signal by an enzyme label.

T2 sequence (Q9UM73 19-1620): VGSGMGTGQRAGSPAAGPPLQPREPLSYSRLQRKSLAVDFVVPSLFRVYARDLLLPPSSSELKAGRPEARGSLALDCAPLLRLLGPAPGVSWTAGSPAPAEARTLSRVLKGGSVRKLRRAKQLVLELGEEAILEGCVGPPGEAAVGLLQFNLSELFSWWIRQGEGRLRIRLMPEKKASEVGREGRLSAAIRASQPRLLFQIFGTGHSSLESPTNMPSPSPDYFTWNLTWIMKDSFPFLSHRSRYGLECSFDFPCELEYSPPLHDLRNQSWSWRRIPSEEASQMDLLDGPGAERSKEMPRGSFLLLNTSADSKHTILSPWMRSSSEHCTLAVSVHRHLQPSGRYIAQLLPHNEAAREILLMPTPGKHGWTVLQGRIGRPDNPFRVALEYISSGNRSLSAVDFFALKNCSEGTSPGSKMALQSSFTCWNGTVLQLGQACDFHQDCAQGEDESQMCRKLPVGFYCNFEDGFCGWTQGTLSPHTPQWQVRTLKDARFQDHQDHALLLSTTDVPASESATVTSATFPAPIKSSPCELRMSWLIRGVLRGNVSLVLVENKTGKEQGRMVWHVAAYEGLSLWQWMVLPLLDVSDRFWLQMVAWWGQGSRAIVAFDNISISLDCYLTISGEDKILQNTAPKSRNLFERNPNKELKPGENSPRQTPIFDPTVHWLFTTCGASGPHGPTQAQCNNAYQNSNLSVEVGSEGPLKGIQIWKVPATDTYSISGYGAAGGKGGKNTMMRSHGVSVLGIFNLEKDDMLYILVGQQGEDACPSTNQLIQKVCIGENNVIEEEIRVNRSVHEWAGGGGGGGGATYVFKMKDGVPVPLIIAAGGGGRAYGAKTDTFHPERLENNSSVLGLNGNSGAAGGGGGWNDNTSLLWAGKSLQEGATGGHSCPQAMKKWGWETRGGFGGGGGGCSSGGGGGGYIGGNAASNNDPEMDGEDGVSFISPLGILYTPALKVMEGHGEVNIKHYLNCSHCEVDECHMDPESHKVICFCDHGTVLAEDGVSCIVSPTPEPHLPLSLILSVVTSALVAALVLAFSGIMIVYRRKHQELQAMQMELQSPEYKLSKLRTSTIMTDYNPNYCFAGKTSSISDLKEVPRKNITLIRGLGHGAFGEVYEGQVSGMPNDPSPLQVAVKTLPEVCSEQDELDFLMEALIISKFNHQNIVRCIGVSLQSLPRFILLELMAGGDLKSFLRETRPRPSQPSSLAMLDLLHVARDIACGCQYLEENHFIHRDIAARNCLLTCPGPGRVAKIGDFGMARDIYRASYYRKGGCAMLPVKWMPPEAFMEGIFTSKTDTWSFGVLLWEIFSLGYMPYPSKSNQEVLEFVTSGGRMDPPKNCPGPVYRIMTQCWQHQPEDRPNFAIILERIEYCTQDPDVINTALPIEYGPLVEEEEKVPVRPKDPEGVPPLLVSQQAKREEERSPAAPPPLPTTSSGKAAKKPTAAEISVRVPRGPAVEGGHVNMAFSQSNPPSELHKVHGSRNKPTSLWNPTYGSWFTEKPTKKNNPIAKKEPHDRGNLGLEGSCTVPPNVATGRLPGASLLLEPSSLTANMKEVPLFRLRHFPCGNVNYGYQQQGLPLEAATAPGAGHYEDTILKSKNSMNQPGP
T1 sequence (O60674 whole entry): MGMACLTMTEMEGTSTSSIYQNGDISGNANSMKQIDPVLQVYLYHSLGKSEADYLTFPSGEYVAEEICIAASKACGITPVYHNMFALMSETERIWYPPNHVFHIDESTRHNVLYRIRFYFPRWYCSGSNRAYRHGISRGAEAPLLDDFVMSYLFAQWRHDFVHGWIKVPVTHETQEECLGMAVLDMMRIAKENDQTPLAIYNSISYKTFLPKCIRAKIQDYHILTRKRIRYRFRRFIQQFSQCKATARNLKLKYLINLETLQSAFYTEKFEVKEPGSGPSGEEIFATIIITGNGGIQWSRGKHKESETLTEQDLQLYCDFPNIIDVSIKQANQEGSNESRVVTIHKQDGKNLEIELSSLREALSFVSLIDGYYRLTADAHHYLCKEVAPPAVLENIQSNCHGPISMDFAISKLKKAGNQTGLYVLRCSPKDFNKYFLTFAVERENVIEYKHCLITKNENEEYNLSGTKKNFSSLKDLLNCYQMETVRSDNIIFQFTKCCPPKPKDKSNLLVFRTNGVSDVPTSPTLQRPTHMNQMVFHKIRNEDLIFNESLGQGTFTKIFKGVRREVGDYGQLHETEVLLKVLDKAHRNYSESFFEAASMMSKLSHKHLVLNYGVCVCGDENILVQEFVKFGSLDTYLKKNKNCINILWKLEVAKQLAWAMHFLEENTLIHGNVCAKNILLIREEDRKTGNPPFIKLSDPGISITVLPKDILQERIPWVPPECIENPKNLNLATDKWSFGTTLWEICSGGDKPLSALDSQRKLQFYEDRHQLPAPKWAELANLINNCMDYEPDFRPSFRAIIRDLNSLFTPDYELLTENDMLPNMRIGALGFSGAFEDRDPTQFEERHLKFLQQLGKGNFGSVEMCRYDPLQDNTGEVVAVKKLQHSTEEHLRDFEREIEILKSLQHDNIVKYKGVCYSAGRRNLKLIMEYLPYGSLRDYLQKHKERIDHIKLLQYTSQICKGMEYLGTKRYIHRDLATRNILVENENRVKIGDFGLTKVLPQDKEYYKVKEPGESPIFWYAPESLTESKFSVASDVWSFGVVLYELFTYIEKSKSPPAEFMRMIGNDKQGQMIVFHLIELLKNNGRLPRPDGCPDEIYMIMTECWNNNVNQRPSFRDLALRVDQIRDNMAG

As for `CS(=O)(=O)Nc1cccc(-c2ccc3cnc(Nc4ccc(N5CCOCC5)cc4)nn23)c1` [Example 201, N-{3-[2-(4-Morpholin-4-yl-phenylamino)-pyrrolo[2,1-f][1,2,4]triazin-7-yl]-phenyl}-methanesulfonamide], the IC50 in assay [1] is less than 100 nM; in assay [2], 100 to 1000 nM.

Take `COc1ccc(Cl)cc1-c1ccc2cnc(Nc3ccc(N4CCN(C[C@H](C)O)CC4)cc3)nn12` [Example 203, (S)-1-(4-{4-[7-(5-Chloro-2-methoxy-phenyl)-pyrrolo[2,1-f][1,2,4]triazin-2-ylamino]-phenyl}-piperazin-1-yl)-propan-2-ol]: the IC50 in assay [1] and in assay [2] was less than 100 nM in each case.

`C[C@H](O)CN1CCN(c2ccc(Nc3ncc4ccc(-c5cccc(Cl)c5)n4n3)cc2)CC1` [Example 204, (S)-1-(4-{4-[7-(3-Chloro-phenyl)-pyrrolo[2,1-f][1,2,4]triazin-2-ylamino]-phenyl}-piperazin-1-yl)-propan-2-ol]: the IC50 in assay [1] and in assay [2] was less than 100 nM in each case.

With `C[C@H](O)CN1CCN(c2ccc(Nc3ncc4ccc(-c5ccc(S(C)(=O)=O)cc5)n4n3)cc2)CC1` [Example 205, (S)-1-(4-{4-[7-(4-Methanesulfonyl-phenyl)-pyrrolo[2,1-f][1,2,4]triazin-2-ylamino]-phenyl}-piperazin-1-yl)-propan-2-ol], the IC50 is less than 100 nM in assay [1] and 100 to 1000 nM in assay [2].

On to `COc1ccc(Cl)cc1-c1ccc2cnc(Nc3ccc(N4CCN(C[C@@H](C)O)CC4)cc3)nn12` [Example 207, (R)-1-(4-{4-[7-(5-Chloro-2-methoxy-phenyl)-pyrrolo[2,1-f][1,2,4]triazin-2-ylamino]-phenyl}-piperazin-1-yl)-propan-2-ol], for which the IC50 in assay [1] and in assay [2] was less than 100 nM throughout.

For `C[C@@H](O)CN1CCN(c2ccc(Nc3ncc4ccc(-c5cccc(Cl)c5)n4n3)cc2)CC1` [Example 208, (R)-1-(4-{4-[7-(3-Chloro-phenyl)-pyrrolo[2,1-f][1,2,4]triazin-2-ylamino]-phenyl}-piperazin-1-yl)-propan-2-ol], the IC50 was less than 100 nM in assay [1] and 100 to 1000 nM in assay [2].

As for `C[C@@H](O)CN1CCN(c2ccc(Nc3ncc4ccc(-c5ccc(S(C)(=O)=O)cc5)n4n3)cc2)CC1` [Example 209, (R)-1-(4-{4-[7-(4-Methanesulfonyl-phenyl)-pyrrolo[2,1-f][1,2,4]triazin-2-ylamino]-phenyl}-piperazin-1-yl)-propan-2-ol], the IC50 in assay [1] was less than 100 nM; in assay [2], 100 to 1000 nM.

`COc1ccc(Cl)cc1-c1ccc2cnc(Nc3cccc(N4CCN(C[C@H](C)O)CC4)c3)nn12` [Example 211, (S)-1-(4-{3-[7-(5-Chloro-2-methoxy-phenyl)-pyrrolo[2,1-f][1,2,4]triazin-2-ylamino]-phenyl}-piperazin-1-yl)-propan-2-ol]: the IC50 in assay [1] and in assay [2] was less than 100 nM each time.

Turning to `C[C@H](O)CN1CCN(c2cccc(Nc3ncc4ccc(-c5cccc(Cl)c5)n4n3)c2)CC1` [Example 212, (S)-1-(4-{3-[7-(3-Chloro-phenyl)-pyrrolo[2,1-f][1,2,4]triazin-2-ylamino]-phenyl}-piperazin-1-yl)-propan-2-ol], the IC50 in assay [1] and in assay [2] was less than 100 nM throughout.

As for `COc1ccc(Cl)cc1-c1ccc2cnc(Nc3cccc(N4CCN(C[C@@H](C)O)CC4)c3)nn12` [Example 214, (R)-1-(4-{3-[7-(5-Chloro-2-methoxy-phenyl)-pyrrolo[2,1-f][1,2,4]triazin-2-ylamino]-phenyl}-piperazin-1-yl)-propan-2-ol], the IC50 in assay [1] and in assay [2] was less than 100 nM throughout.

For `C[C@@H](O)CN1CCN(c2cccc(Nc3ncc4ccc(-c5cccc(Cl)c5)n4n3)c2)CC1` [Example 215, (R)-1-(4-{3-[7-(3-Chloro-phenyl)-pyrrolo[2,1-f][1,2,4]triazin-2-ylamino]-phenyl}-piperazin-1-yl)-propan-2-ol], the IC50 in assay [1] and in assay [2] was less than 100 nM each time.

Regarding `C[C@H](O)CN1CCN(c2cccc(Nc3ncc4ccc(-c5ccc(S(C)(=O)=O)cc5)n4n3)c2)CC1` [Example 216, (S)-1-(4-{3-[7-(4-Methanesulfonyl-phenyl)-pyrrolo[2,1-f][1,2,4]triazin-2-ylamino]-phenyl}-piperazin-1-yl)-propan-2-ol], the IC50 in assay [1] was less than 100 nM; in assay [2], 100 to 1000 nM.

`C[C@@H](O)CN1CCN(c2cccc(Nc3ncc4ccc(-c5ccc(S(C)(=O)=O)cc5)n4n3)c2)CC1` [Example 217, (R)-1-(4-{3-[7-(4-Methanesulfonyl-phenyl)-pyrrolo[2,1-f][1,2,4]triazin-2-ylamino]-phenyl}-piperazin-1-yl)-propan-2-ol]: the IC50 was less than 100 nM in assay [1] and 100 to 1000 nM in assay [2].

For the compound `COc1ccccc1-c1ccc2cnc(Nc3cccc(N4CCN(CC(C)(C)O)CC4)c3)nn12` [Example 218, 1-(4-{3-[7-(2-Methoxy-phenyl)-pyrrolo[2,1-f][1,2,4]triazin-2-ylamino]-phenyl}-piperazin-1-yl)-2-methyl-propan-2-ol], the IC50 in assay [1] and in assay [2] was less than 100 nM throughout.

Regarding `COc1ccc(Cl)cc1-c1ccc2cnc(Nc3cccc(N4CCN(CC(C)(C)O)CC4)c3)nn12` [Example 219, 1-(4-{3-[7-(5-Chloro-2-methoxy-phenyl)-pyrrolo[2,1-f][1,2,4]triazin-2-ylamino]-phenyl}-piperazin-1-yl)-2-methyl-propan-2-ol], the IC50 in assay [1] and in assay [2] was less than 100 nM in each case.

Regarding `CC(C)(O)CN1CCN(c2cccc(Nc3ncc4ccc(-c5cccc(Cl)c5)n4n3)c2)CC1` [Example 220, 1-(4-{3-[7-(3-Chloro-phenyl)-pyrrolo[2,1-f][1,2,4]triazin-2-ylamino]-phenyl}-piperazin-1-yl)-2-methyl-propan-2-ol], the IC50 in assay [1] is less than 100 nM; in assay [2], 100 to 1000 nM.

Turning to `COc1ccccc1-c1ccc2cnc(Nc3ccc(N4CCN(CC(C)(C)O)CC4)cc3)nn12` [Example 221, 1-(4-{4-[7-(2-Methoxy-phenyl)-pyrrolo[2,1-f][1,2,4]triazin-2-ylamino]-phenyl}-piperazin-1-yl)-2-methyl-propan-2-ol], the IC50 in assay [1] and in assay [2] was less than 100 nM in each case.

For the compound `COc1ccc(Cl)cc1-c1ccc2cnc(Nc3ccc(N4CCN(CC(C)(C)O)CC4)cc3)nn12` [Example 222, 1-(4-{4-[7-(5-Chloro-2-methoxy-phenyl)-pyrrolo[2,1-f][1,2,4]triazin-2-ylamino]-phenyl}-piperazin-1-yl)-2-methyl-propan-2-ol], the IC50 in assay [1] and in assay [2] was less than 100 nM throughout.

With `CC(C)(O)CN1CCN(c2ccc(Nc3ncc4ccc(-c5cccc(Cl)c5)n4n3)cc2)CC1` [Example 223, 1-(4-{4-[7-(3-Chloro-phenyl)-pyrrolo[2,1-f][1,2,4]triazin-2-ylamino]-phenyl}-piperazin-1-yl)-2-methyl-propan-2-ol], the IC50 in assay [1] and in assay [2] was less than 100 nM in each case.

For the compound `COc1cc(N2CCN(C3CCN(C)CC3)CC2)ccc1Nc1ncc2ccc(-c3ccccc3OC)n2n1` [Example 231, {2-Methoxy-4-[4-(1-methyl-piperidin-4-yl)-piperazin-1-yl]-phenyl}-[7-(2-methoxy-phenyl)-pyrrolo[2,1-f][1,2,4]triazin-2-yl]-amine], the IC50 in assay [1] and in assay [2] was less than 100 nM each time.

Turning to `COc1cc(N2CCCC(N3CCN(C(C)=O)CC3)C2)ccc1Nc1ncc2ccc(-c3ccccc3OC)n2n1` (stereo not shown) [Example 232, 1-[4-(1-{3-Methoxy-4-[7-(2-methoxy-phenyl)-pyrrolo[2,1-f][1,2,4]triazin-2-ylamino]-phenyl}-piperidin-3-yl)-piperazin-1-yl]-ethanone], the IC50 in assay [1] and in assay [2] was less than 100 nM each time.

Regarding `COc1cc(N2CCCC(N3CCN(S(C)(=O)=O)CC3)C2)ccc1Nc1ncc2ccc(-c3ccccc3OC)n2n1` (stereo not shown) [Example 233, {4-[3-(4-Methanesulfonyl-piperazin-1-yl)-piperidin-1-yl]-2-methoxy-phenyl}-[7-(2-methoxy-phenyl)-pyrrolo[2,1-f][1,2,4]triazin-2-yl]-amine], the IC50 in assay [1] and in assay [2] was less than 100 nM throughout.

Consider `COc1cc(N2CCCC(N3CCN(C(=O)OCc4ccccc4)CC3)C2)ccc1Nc1ncc2ccc(-c3ccccc3OC)n2n1` (stereo not shown) [Example 234, 4-(1-{3-Methoxy-4-[7-(2-methoxy-phenyl)-pyrrolo[2,1-f][1,2,4]triazin-2-ylamino]-phenyl}-piperidin-3-yl)-piperazine-1-carboxylic acid benzyl ester], for which the results for the IC50 in assay [1] and in assay [2] were 1000 to 10000 nM and 100 to 1000 nM, respectively.

For `COc1cc(N2CCCC(N3CCN(C)CC3)C2)ccc1Nc1ncc2ccc(-c3ccccc3OC)n2n1` (stereo not shown) [Example 235, {2-Methoxy-4-[3-(4-methyl-piperazin-1-yl)-piperidin-1-yl]-phenyl}-[7-(2-methoxy-phenyl)-pyrrolo[2,1-f][1,2,4]triazin-2-yl]-amine], the values for the IC50 in assay [1] and in assay [2] were 100 to 1000 nM and less than 100 nM, respectively.

As for `COc1cc(N2CCC(N3CCN(C)CC3)CC2)ccc1Nc1ncc2ccc(-c3cccnc3)n2n1` [Example 241], the IC50 in assay [1] is 100 to 1000 nM; in assay [2], less than 100 nM.

In the case of `CNC(=O)c1ccc(-c2ccc3cnc(Nc4ccc(N5CCC(N6CCN(C)CC6)CC5)cc4OC)nn23)cc1` [Example 242, 4-(2-{2-Methoxy-4-[4-(4-methyl-piperazin-1-yl)-piperidin-1-yl]-phenylamino}-pyrrolo[2,1-f][1,2,4]triazin-7-yl)-N-methyl-benzamide], the IC50 in assay [1] and in assay [2] was less than 100 nM in each case.
